Data from patent US20170348263A1, “COMPOSITIONS AND METHODS OF USING MODIFIED RELEASE SOLABEGRON FOR LOWER URINARY TRACT SYMPTOMS” (VELICEPT THERAPEUTICS, INC., priority 2016, published 2017).

Legend:
beta-3 adrenoceptor [1] = molecular target: T1, beta-3 adrenoceptor (Rattus norvegicus, UniProt P26255); assay: Receptor desensitization/washout: CCRC after incubation with EC90 concentration and PSS washout, rat bladder strips; format: cell-based
T1 construct: The bladder longitudinal smooth muscle, with the urothelium still attached were mounted in 25 mL organ baths; from tissue; host or cells: rat urinary bladder smooth muscle strips (Male CD rats)
T1 sequence (P26255 whole entry): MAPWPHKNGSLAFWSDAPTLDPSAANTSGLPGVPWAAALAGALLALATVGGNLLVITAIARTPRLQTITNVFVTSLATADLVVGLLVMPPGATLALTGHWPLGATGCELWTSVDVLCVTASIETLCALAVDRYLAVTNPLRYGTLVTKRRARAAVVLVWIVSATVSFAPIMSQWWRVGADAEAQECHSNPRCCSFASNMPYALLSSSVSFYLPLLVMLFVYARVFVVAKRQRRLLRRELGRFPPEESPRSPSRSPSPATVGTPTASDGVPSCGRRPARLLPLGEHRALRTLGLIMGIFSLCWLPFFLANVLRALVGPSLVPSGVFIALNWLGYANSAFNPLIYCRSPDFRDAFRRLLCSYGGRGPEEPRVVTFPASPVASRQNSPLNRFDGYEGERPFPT
Description: (§1) Macroscopically normal bladders obtained from Male CD rats (220-250 g) were used. […] Each bladder was cleaned free of surrounding connective tissue and halved longitudinally. The bladder longitudinal smooth muscle, with the urothelium still attached were mounted in 25 mL organ baths containing physiological saline solution (PSS) (composition: 119.0 mM NaCl, 4.7 mM KCl, 1.2 mM MgSO4, 24.9 mM NaHCO3, 1.2 mM KH2PO4, 2.5 mM CaCl2 and 11.1 mM glucose) supplemented with 1 μM prazosin (α1-adrenoceptor antagonist) and 30 nM ICI118551 (β2-adrenoceptor antagonist), aerated with 95% O2/5% CO2 gas mix, warmed and maintained at approximately 37° C. throughout the experiment. Changes in force production were recorded using transducers. After mounting, the bladder halves were allowed to equilibrate for at least 30 min before they were set to a stable tension of approximately 1.0 g. The tissue was then allowed to equilibrate over at least a 60 min period with washes every 15 min.
In initial experiments the parameters for the EFS were assessed by performing a frequency curve to determine a frequency that would give a response that was approximately 80% of the response seen to 80 mM KCl. Optimal EFS parameters were determined to be: 30 Volts, square pulse of 0.1 ms, train of 4 seconds every 120 seconds, 15 Hz. This frequency was then used to stimulate the tissue for all subsequent experiments. The viability of bladder strips was tested by stimulating the tissue with EFS for minimum of ten minutes.
Following compound incubation, the tissues were washed with PSS for a period of 1, 3 or 6 hr, with washes approximately every 15 min, to remove the drug. At the end of the final wash period the tissues were stimulated with EFS, and left to equilibrate for at least 30 min. A CCRC was then performed in each tissue. Tissue responses were calculated as the mean (SEM) and expressed as percentage of EFS induced tone.
Tissues were incubated with the EC90 concentration of the test compounds for one hr followed by one hr, three hr or six hr of washing with PSS. […] This EFS-induced potentiation of bladder contraction from baseline was not observed with solabegron. […] Effect of the washout period following a […] incubation with test compound.
In the next series of experiments, tissues were incubated with the EC90 concentration of the test compounds for three hr followed by either one hr, three hr or six hr of washing with PSS.

beta-3 adrenoceptor [2] = molecular target: T1, beta-3 adrenoceptor; assay: EC90 determination: inhibition of EFS-induced contraction in rat isolated bladder (pilot CCRC); format: cell-based; conditions: pilot concentration response curves, read-out: EC90 concentration to inhibit EFS-induced contraction
Description: as §1, with “After mounting, the bladder halves were allowed to equilibrate for at least 30 min before they were set to a stable tension of approximately 1.0 g. The tissue was then allowed to equilibrate over at least a 60 min period with washes every 15 min.” left out
In initial experiments the parameters for the EFS were assessed by performing a frequency curve to determine a frequency that would give a response that was approximately 80% of the response seen to 80 mM KCl. Optimal EFS parameters were determined to be: 30 Volts, square pulse of 0.1 ms, train of 4 seconds every 120 seconds, 15 Hz. […]
Pilot studies to determine EC90 concentrations of the test compounds were performed. […] From the data obtained in these experiments, EC90 concentrations of the test compounds were determined for use in subsequent experiments. […]

Solubility of solabegron = format: physicochemical
beta-3 adrenoceptor [3] = molecular target: T2, beta-3 adrenoceptor (Homo sapiens, UniProt P13945); assay: Desensitization and resensitization in isolated human bladder tissue strips (EFS responses); format: cell-based; design: dose or concentration left out as unconfirmed
T2 construct: from tissue; host or cells: human urinary bladder muscle strips
T2 sequence (P13945 whole entry): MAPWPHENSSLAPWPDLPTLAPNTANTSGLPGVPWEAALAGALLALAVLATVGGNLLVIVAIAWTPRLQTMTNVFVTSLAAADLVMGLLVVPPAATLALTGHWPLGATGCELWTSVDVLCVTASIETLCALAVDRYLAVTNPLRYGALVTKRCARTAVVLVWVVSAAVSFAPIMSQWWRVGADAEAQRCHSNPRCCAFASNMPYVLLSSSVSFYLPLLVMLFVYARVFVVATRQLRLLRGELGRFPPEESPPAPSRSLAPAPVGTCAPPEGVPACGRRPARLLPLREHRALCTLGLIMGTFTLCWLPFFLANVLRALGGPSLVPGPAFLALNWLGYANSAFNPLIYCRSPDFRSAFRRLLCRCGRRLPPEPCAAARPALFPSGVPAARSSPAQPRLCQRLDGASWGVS
Description: Beta-3 adrenoceptor desensitization and resensitization were examined in the human bladder. Similar to the protocol used in the rat bladder, isolated human bladder tissue strips were studied for EFS responses. Optimal EFS parameters were determined to be: 30 volts, square pulse of 0.1 ms, train of 5 seconds every 60 seconds, 8-10 Hz. […] Following compound incubation, the tissues were washed with PSS for a period of 1 or 3 hr, with washes approximately every 15 min, to remove the drug. At the end of the final wash period the tissues were stimulated with EFS, and left to equilibrate for at least 30 min. A concentration-response curve was then performed in each tissue.

overactive bladder = conditions: women with moderate to severe OAB; cited from earlier work
[4] = three hr incubation with EC90, one hr of washing

| Structure (SMILES) | response (reduction of EFS-induced tone) after pre-exposure (beta-3 adrenoceptor [1]; [4]) | EC90 (beta-3 adrenoceptor [2]) [nM] | response (reduction of EFS-induced tone) after pre-exposure (beta-3 adrenoceptor [1]; one hr incubation with EC90, one hr of washing with PSS, vs vehicle incubation) | response (reduction of EFS-induced tone) after pre-exposure (beta-3 adrenoceptor [1]; one hr incubation with EC90, three hr of washing, responses to higher concentrations) | response (reduction of EFS-induced tone) after pre-exposure (beta-3 adrenoceptor [1]; three hr incubation with EC90, three hr of washing, responses to the highest concentrations) | solubility (Solubility of solabegron) | inhibition of EFS-induced bladder smooth muscle contraction (beta-3 adrenoceptor [3]) | safety and tolerability, adverse events as compared to placebo (overactive bladder) | symptoms of overactive bladder (overactive bladder) |
| --- | --- | --- | --- | --- | --- | --- | --- | --- | --- |
| C[C@H](Cc1ccc2c(c1)OC(C(=O)[O-])(C(=O)[O-])O2)NC[C@H](O)c1cccc(Cl)c1.[Na+].[Na+] [CL-316,243, reference compound] | significantly attenuated | 42 | – | – | – | – | – | – | – |
| O=C(O)c1cccc(-c2cccc(NCCNC[C@H](O)c3cccc(Cl)c3)c2)c1 [Solabegron, 3′-[(2-{[(2R)-2-(3-chlorophenyl)-2-hydroxyethyl]amino}ethyl)amino]biphenyl-3-carboxylic acid] | significantly attenuated | – | significantly attenuated | significantly attenuated | significantly attenuated | pH dependent and low solubility | concentration-dependent inhibition | safe, well-tolerated, and does not demonstrate significant differences in adverse events as compared to placebo | significantly reduce the symptoms of overactive bladder |
